Source: patent publication US9139567B2, “Arylpyrazole ethers as inhibitors of leukotriene A4 hydrolase” (Boehringer Ingelheim International GmbH, priority 2011, dated 2015)

Legend:
[1] = test system: LTB4 production in human whole blood; assay: LTB4 production inhibition assay in human whole blood (calcimycin-stimulated); assay type: cell-based; settings: heparinized human whole blood, 15 min 37° C., calcimycin 20 μM 30 min, plasma LTB4 by HTRF
Method: Compounds of the invention are additionally tested in a human whole blood assay to determine their ability to inhibit the synthesis of LTB4 in a cellular system. Compounds are combined with heparinized human whole blood and incubated for 15 minutes at 37° C. Calcimycin (20 μM final, prepared in phosphate-buffered saline, pH 7.4) is then added and the mixture is incubated for another 30 minutes at 37° C. The samples are centrifuged for 5 min at low speed (1500×g) and the plasma layer is removed. Plasma LTB4 concentrations are then measured using an antibody-based homogenous time-resolved fluorescence method (CisBio, Bedford, Mass.).

[2] = molecular target: T1, human LTA4 hydrolase (Homo sapiens, UniProt P09960); assay: LTA4H enzyme assay (cleavage of Arg-AMC, fluorescence); assay type: biochemical; settings: LTA4H enzyme 1 nM, Arg-AMC substrate 50 μM, room temperature 1 h
T1 sequence (P09960 1-611): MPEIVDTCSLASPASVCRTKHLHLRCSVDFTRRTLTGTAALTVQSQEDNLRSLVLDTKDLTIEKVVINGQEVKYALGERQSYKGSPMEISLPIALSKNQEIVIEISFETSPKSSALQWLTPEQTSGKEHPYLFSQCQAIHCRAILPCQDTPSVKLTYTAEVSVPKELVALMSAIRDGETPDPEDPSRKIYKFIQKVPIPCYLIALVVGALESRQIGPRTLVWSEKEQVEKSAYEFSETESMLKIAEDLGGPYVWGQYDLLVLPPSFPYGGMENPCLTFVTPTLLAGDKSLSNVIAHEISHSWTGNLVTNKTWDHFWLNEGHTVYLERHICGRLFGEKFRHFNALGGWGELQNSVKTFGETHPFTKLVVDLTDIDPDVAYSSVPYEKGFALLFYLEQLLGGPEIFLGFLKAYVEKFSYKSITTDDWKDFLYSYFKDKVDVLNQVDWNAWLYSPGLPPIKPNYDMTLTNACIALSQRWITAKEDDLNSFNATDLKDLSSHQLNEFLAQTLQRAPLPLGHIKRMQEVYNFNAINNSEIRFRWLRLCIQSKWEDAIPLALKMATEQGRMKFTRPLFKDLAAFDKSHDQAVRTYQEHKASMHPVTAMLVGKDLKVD
Method: Compounds are assessed for the ability to interact with human LTA4 hydrolase in an enzymatic assay that measures the ability of the enzyme to cleave the peptide bond of arginyl-aminomethylcoumarin (Arg-AMC). LTA4H Enzyme (1 nM final), Arg-AMC substrate (50 μM final), and compound are combined in a reaction buffer (50 mM Tris-HCl (pH 7.5), 100 mM KCl, 0.5% bovine serum albumin) at room temperature for 1 h. The formation of product is assessed by measuring the fluorescence of aminomethylcoumarin product (excitation wavelength 380 nm/emission wavelength 460 nm).

SMILES	IC50 [1] [nM]	IC50 [2] [nM]
c1cc(COc2ccc(Oc3ccc(-c4ccn[nH]4)cc3)cc2)ccn1 [Example 35, 4-({4-[4-(1H-pyrazol-5-yl)phenoxy]phenoxy}methyl)pyridine]	1780	3.9
c1cc(-c2ccc(Oc3ccc(OCc4cn5ccsc5n4)cc3)cc2)[nH]n1 [Example 36, 6-({4-[4-(1H-pyrazol-5-yl)phenoxy]phenoxy}methyl)imidazo[2,1-b][1,3]thiazole]	4500	6
CS(=O)(=O)c1ccc(COc2ccc(Oc3ccc(-c4ccn[nH]4)cc3)cc2)cc1 [Example 37, 5-[4-(4-{[4-(methylsulfonyl)benzyl]oxy}phenoxy)phenyl]-1H-pyrazole]	2090	3.5
c1cc(-c2ccc(Oc3ccc(OCc4cscn4)cc3)cc2)[nH]n1 [Example 38, 4-{4-[4-(2H-Pyrazol-3-yl)-phenoxy]-phenoxymethyl}-thiazole]	≥ 5000	3.3
c1cc(-c2ccc(Oc3ccc(OCc4cnc5[nH]ccc5c4)cc3)cc2)[nH]n1 [Example 39, 5-({4-[4-(1H-pyrazol-5-yl)phenoxy]phenoxy}methyl)-1H-pyrrolo[2,3-b]pyridine]	≥ 5000	7.6
c1cc(CCOc2ccc(Oc3ccc(-c4ccn[nH]4)cc3)cc2)ccn1 [Example 40, 4-(2-{4-[4-(1H-pyrazol-5-yl)phenoxy]phenoxy}ethyl)pyridine]	3120	3.2
c1ccc2[nH]c(NCCOc3ccc(Oc4ccc(-c5ccn[nH]5)cc4)cc3)nc2c1 [Example 41, N-(2-{4-[4-(1H-pyrazol-5-yl)phenoxy]phenoxy}ethyl)-1H-benzimidazol-2-amine]	673	0.2
Cc1nccn1CCOc1ccc(Oc2ccc(-c3ccn[nH]3)cc2)cc1 [Example 42, 5-(4-{4-[2-(2-methyl-1H-imidazol-1-yl)ethoxy]phenoxy]phenyl)-1H-pyrazole]	172	0.3
c1ccc2c(c1)ncn2CCOc1ccc(Oc2ccc(-c3ccn[nH]3)cc2)cc1 [Example 43, 1-(2-{4-[4-(1H-pyrazol-5-yl)phenoxy]phenoxy}ethyl)-1H-benzimidazole]	1910	1.3
c1cnc(COc2ccc(Oc3ccc(-c4ccn[nH]4)cc3)cc2)cn1 [Example 44, 2-({4-[4-(1H-pyrazol-5-yl)phenoxy]phenoxy}methyl)pyrazine]	766	1.1
c1ccc2[nH]c(CCOc3ccc(Oc4ccc(-c5ccn[nH]5)cc4)cc3)nc2c1 [Example 45, 2-(2-{4-[4-(1H-pyrazol-5-yl)phenoxy]phenoxy}ethyl)-1H-benzimidazole]	≥ 5000	1.7
c1cc(-c2ccc(Oc3ccc(OCc4cc[nH]n4)cc3)cc2)[nH]n1 [Example 46, 3-({4-[4-(1H-pyrazol-5-yl)phenoxy]phenoxy}methyl)-1H-pyrazole]	4900	6.1
c1cnc2c(c1)CCC2Oc1ccc(Oc2ccc(-c3ccn[nH]3)cc2)cc1 (stereo not shown) [Example 47, 7-{4-[4-(1H-pyrazol-5-yl)phenoxy]phenoxy}-6,7-dihydro-5H-cyclopenta[b]pyridine]	≥ 5000	82.4
CC(Oc1ccc(Oc2ccc(-c3ccn[nH]3)cc2)cc1)c1ccncc1 (stereo not shown) [Example 48, 4-(1-{4-[4-(1H-pyrazol-5-yl)phenoxy]phenoxy}ethyl)pyridine]	3920	16.9
c1cc(-c2ccc(Oc3ccc(OCc4cnc5cc[nH]c5c4)cc3)cc2)[nH]n1 [Example 49, 6-({4-[4-(1H-pyrazol-5-yl)phenoxy]phenoxy}methyl)-1H-pyrrolo[3,2-b]pyridine]	3140	1.2
c1cnn(CCCOc2ccc(Oc3ccc(-c4ccn[nH]4)cc3)cc2)c1 [Example 50, 1-(3-{4-[4-(1H-pyrazol-5-yl)phenoxy]phenoxy}propyl)-1H-pyrazole]	2110	1.2
CC(CCOc1ccc(Oc2ccc(-c3ccn[nH]3)cc2)cc1)n1cccn1 (stereo not shown) [Example 51, 1-(1-methyl-3-{4-[4-(1H-pyrazol-5-yl)phenoxy]phenoxy}propyl)-1H-pyrazole]	3110	4
c1cc(-c2ccc(Oc3ccc(OCc4ccno4)cc3)cc2)[nH]n1 [Example 52, 5-({4-[4-(1H-pyrazol-5-yl)phenoxy]phenoxy}methyl)isoxazole]	2600	4.1

SMILES	IC50 [1] [nM]	IC50 [2] [nM]
c1ccn2cc(COc3ccc(Oc4ccc(-c5ccn[nH]5)cc4)cc3)nc2c1 [Example 53, 2-({4-[4-(1H-pyrazol-5-yl)phenoxy]phenoxy}methyl)imidazo[1,2-a]pyridine]	≥ 5000	3.7
c1cc(-c2ccc(Oc3ccc(OCc4cocn4)cc3)cc2)[nH]n1 [Example 54, 4-({4-[4-(1H-pyrazol-5-yl)phenoxy]phenoxy}methyl)-1,3-oxazole]	≥ 5000	4.2
c1cc(-c2ccc(Oc3ccc(OCCc4cn[nH]c4)cc3)cc2)[nH]n1 [Example 55, 4-(2-{4-[4-(1H-pyrazol-5-yl)phenoxy]phenoxy}ethyl)-1H-pyrazole]	2500	7
Cn1ncnc1COc1ccc(Oc2ccc(-c3ccn[nH]3)cc2)cc1 [Example 56, 1-methyl-5-({4-[4-(1H-pyrazol-5-yl)phenoxy]phenoxy}methyl)-1H-1,2,4-triazole]	≥ 5000	0.6
Cn1nc(COc2ccc(Oc3ccc(-c4ccn[nH]4)cc3)cc2)cc1-c1ccco1 [Example 57, 5-(2-furyl)-1-methyl-3-({4-[4-(1H-pyrazol-5-yl)phenoxy]phenoxy}methyl)-1H-pyrazole]	≥ 5000	11
C[C@H](Oc1ccc(Oc2ccc(-c3ccn[nH]3)cc2)cc1)c1ccccn1 [Example 58, 2-[(1S)-1-{4-[4-(1H-pyrazol-5-yl)phenoxy]phenoxy}ethyl]pyridine]	≥ 5000	44
C[C@@H](Oc1ccc(Oc2ccc(-c3ccn[nH]3)cc2)cc1)c1ccccn1 [Example 59, 2-[(1R)-1-{4-[4-(1H-pyrazol-5-yl)phenoxy]phenoxy}ethyl]pyridine]	≥ 5000	42.7
Cc1nc(COc2ccc(Oc3ccc(-c4ccn[nH]4)cc3)cc2)co1 [Example 60, 2-methyl-4-({4-[4-(1H-pyrazol-5-yl)phenoxy]phenoxy}methyl)-1,3-oxazole]	≥ 5000	3.9
Cn1nccc1COc1ccc(Oc2ccc(-c3ccn[nH]3)cc2)cc1 [Example 61, 1-methyl-5-({4-[4-(1H-pyrazol-5-yl)phenoxy]phenoxy}methyl)-1H-pyrazole]	1120	1.4
c1ccc(COc2ccc(Oc3ccc(-c4ccn[nH]4)cc3)cc2)cc1 [Example 62, 5-{4-[4-(benzyloxy)phenoxy]phenyl}-1H-pyrazole]	≥ 5000	142
c1cc(-c2ccc(Oc3ccc(OCc4ccoc4)cc3)cc2)[nH]n1 [Example 63, 5-{4-[4-(3-furylmethoxy)phenoxy]phenyl}-1H-pyrazole]	≥ 5000	52.9
c1ccc2sc(COc3ccc(Oc4ccc(-c5ccn[nH]5)cc4)cc3)nc2c1 [Example 64, 2-({4-[4-(1H-pyrazol-5-yl)phenoxy]phenoxy}methyl)-1,3-benzothiazole]	≥ 5000	44.2
Cn1ccc(COc2ccc(Oc3ccc(-c4ccn[nH]4)cc3)cc2)n1 [Example 65, 1-methyl-3-({4-[4-(1H-pyrazol-5-yl)phenoxy]phenoxy}methyl)-1H-pyrazole]	≥ 5000	12.9
c1ccc(CCOc2ccc(Oc3ccc(-c4ccn[nH]4)cc3)cc2)cc1 [Example 66, 5-{4-[4-(2-phenylethoxy)phenoxy]phenyl}-1H-pyrazole]	≥ 5000	959
Cc1ncsc1CCOc1ccc(Oc2ccc(-c3ccn[nH]3)cc2)cc1 [Example 67, 4-Methyl-5-(2-{4-[4-(2H-pyrazol-3-yl)-phenoxy]-phenoxy}-ethyl)-thiazole]	≥ 5000	11.2
c1csc(CCOc2ccc(Oc3ccc(-c4ccn[nH]4)cc3)cc2)c1 [Example 68, 5-(4-{4-[2-(2-thienyl)ethoxy]phenoxy}phenyl)-1H-pyrazole]	≥ 5000	820
c1cc(-c2ccc(Oc3ccc(OCc4ccsc4)cc3)cc2)[nH]n1 [Example 69, 5-{4-[4-(3-thienylmethoxy)phenoxy]phenyl}-1H-pyrazole]	≥ 5000	65.3
